In assay [1] the target is T1, Tyrosyl-DNA phosphodiesterase 1 (Homo sapiens, UniProt Q9NUW8). The assay can be described thus: Inhibition of recombinant TDP1 (unknown origin) assessed as substrate cleavage using 5'-Cy5-GATCTAAAAGACTT-pY-3' DNA substrate at 111 uM measured after 15 mins by gel-based assay.
Assay [2] deals with T1, Tyrosyl-DNA phosphodiesterase 1. In words: Inhibition of recombinant TDP1 (unknown origin) assessed as substrate cleavage using 5'-Cy5-GATCTAAAAGACTT-pY-3' DNA substrate measured after 15 mins by gel-based assay.
In assay [3] the test system is HCT-116. The assay can be described thus: Radiosensitizing activity in human HCT-116 cells assessed as induction of 2 GY ionizing radiation (IR) induced cell killing effect. It counts as functional, cell-based.
In assay [4] the test system is HCT-116. The assay can be described thus: Cytotoxicity against human HCT116 cells assessed as cell killing at 0.1 uM relative to control. It counts as functional.
In assay [5] the test system is HCT-116. The assay can be described thus: Radiosensitizing activity in human HCT-116 cells assessed as sensitization of 2 GY ionizing radiation (IR) induced cell killing effect at 0.2 uM relative to control. It counts as functional.
The test system of assay [6] is HCT-116. The assay can be described thus: Cytotoxicity against human HCT116 cells assessed as cell killing at 0.2 uM relative to control. The format is functional.
The test system of assay [7] is HCT-116. In words: Synergistic cytotoxicity against human HCT116 cells assessed as combination index at 0.5 uM incubated for 48 hrs in presence of 2GY ionizing radiation (IR). The format is functional.

The source made the active and inactive calls. No cut-off for these calls is given here. Bounds are passed on as bounds.

T1 sequence (Q9NUW8 whole entry): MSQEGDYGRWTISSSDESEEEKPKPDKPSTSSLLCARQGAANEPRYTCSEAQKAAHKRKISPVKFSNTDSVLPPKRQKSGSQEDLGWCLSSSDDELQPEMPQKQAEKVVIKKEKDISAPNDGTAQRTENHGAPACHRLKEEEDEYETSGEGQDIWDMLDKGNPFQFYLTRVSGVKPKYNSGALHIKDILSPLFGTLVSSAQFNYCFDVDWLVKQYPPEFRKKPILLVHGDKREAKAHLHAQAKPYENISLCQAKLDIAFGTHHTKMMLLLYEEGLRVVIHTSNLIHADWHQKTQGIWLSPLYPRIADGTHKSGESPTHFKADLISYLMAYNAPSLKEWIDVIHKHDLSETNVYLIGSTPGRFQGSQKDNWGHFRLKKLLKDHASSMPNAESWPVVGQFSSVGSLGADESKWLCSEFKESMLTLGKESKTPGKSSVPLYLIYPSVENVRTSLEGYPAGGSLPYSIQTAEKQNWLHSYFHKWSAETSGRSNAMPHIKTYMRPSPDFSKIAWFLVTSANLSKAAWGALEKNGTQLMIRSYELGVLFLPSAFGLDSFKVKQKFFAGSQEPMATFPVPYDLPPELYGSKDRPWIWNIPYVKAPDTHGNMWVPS

Regarding `COc1cc2c(cc1OCCn1ccnc1)c(=O)n(CCN(C)C)c1c3cc4c(cc3ccc21)OCO4`, the inhibition result in assay [1] is “inactive”.

Consider `COc1cc2c(cc1OCCN1CCCC1)c(=O)n(CCN(C)C)c1c3cc4c(cc3ccc21)OCO4`, for which, in assay [2], the IC50 – broadly, the midpoint of a concentration-inhibition curve – is 29 µM.

`COc1cc2c(cc1OCCN1CCN(C)CC1)c(=O)n(CCN(C)C)c1c3cc4c(cc3ccc21)OCO4`: the IC50 in assay [2] came to 46 µM.

For the compound `CCCCN(CCCC)CCCOc1cc2c(cc1OC)c(=O)n(CCN(C)C)c1c3cc4c(cc3ccc21)OCO4`, the IC50 in assay [2] came out at 31 µM.

For `COc1cc2c(=O)n(CCN(C)C)c3c4cc5c(cc4ccc3c2cc1OCCCNC12CC3CC(CC(C3)C1)C2)OCO5`, in assay [2], the IC50 was 1.6 µM. For the same compound, the outcome in the assay with HCT-116 [3] was Active.

With `COc1cc2c(=O)n(CCN(C)C)c3c4cc5c(cc4ccc3c2cc1OCCCN1CCN(C)CC1)OCO5`, the IC50 in assay [2] stood at 7.8 µM. Also, the outcome in the assay on HCT-116 [3] was Active.

As to `COc1cc2c(=O)n(CCN(C)C)c3c4cc5c(cc4ccc3c2cc1OCCCN1CCCCC1)OCO5`, in assay [2], the IC50 turned out to be 6.9 µM.

`COc1cc2c(=O)n(CCN(C)C)c3c4cc5c(cc4ccc3c2cc1OCCN1CCN(C)CC1)OCO5`: in assay [2], the IC50 was 6 µM. For the same compound, in the assay on HCT-116 [3], the outcome was Active.

Take `COc1cc2c(=O)n(CCN(C)C)c3c4cc5c(cc4ccc3c2cc1OCCN1CCCCC1)OCO5`: the IC50 in assay [2] came to 22 µM.

Consider `COc1cc2c(cc1OCCN1CCOCC1)c(=O)n(CCN(C)C)c1c3cc4c(cc3ccc21)OCO4`, for which the inhibition result in assay [1] is “inactive”.

Consider `COc1cc2c(cc1OCCCN1CCN(C)CC1)c(=O)n(CCN(C)C)c1c3cc4c(cc3ccc21)OCO4`, for which the IC50 in assay [2] was found to be 31 µM.

Turning to `COc1cc2c(cc1OCCCN1CCOCC1)c(=O)n(CCN(C)C)c1c3cc4c(cc3ccc21)OCO4`, the IC50 in assay [2] worked out at 17 µM.

As to `COc1cc2c(=O)n(CCN(C)C)c3c4cc5c(cc4ccc3c2cc1OCCCN(C)C)OCO5`, in assay [2], the half-maximal inhibitory concentration (IC50) amounted to 4.7 µM. For the same compound, the result with HCT-116 [3] was Active.

`COc1cc2c(=O)n(CCN(C)C)c3c4cc5c(cc4ccc3c2cc1OCCn1ccnc1)OCO5`: the half-maximal inhibitory concentration (IC50) in assay [2] came out at 33 µM.

With `CCN(CC)CCOc1cc2c(cc1OC)c(=O)n(CCN(C)C)c1c3cc4c(cc3ccc21)OCO4`, in assay [2], the IC50 turned out to be 43 µM.

Turning to `COc1cc2c(=O)n(CCN(C)C)c3c4cc5c(cc4ccc3c2cc1OCCN1CCCC1)OCO5`, in assay [1], the inhibition result is “inactive”.

Take `COc1cc2c(cc1OCCCN1CCCCC1)c(=O)n(CCN(C)C)c1c3cc4c(cc3ccc21)OCO4`: the IC50 in assay [2] is 7.4 µM. For the same compound, the outcome in the assay with HCT-116 [3] was Active.

`COc1cc2c(cc1OCCN1CCCCC1)c(=O)n(CCN(C)C)c1c3cc4c(cc3ccc21)OCO4`: in assay [2], the IC50 was 16 µM.

In the case of `COc1cc2c(=O)n(CCN(C)C)c3c4cc5c(cc4ccc3c2cc1OCCCN1CCOCC1)OCO5`, the inhibition entry in assay [1] is “inactive”.

As to `COc1cc2c(cc1OCCCN(C)C)c(=O)n(CCN(C)C)c1c3cc4c(cc3ccc21)OCO4`, in assay [2], the IC50 was 9.3 µM. In the assay on HCT-116 [3], the result was Active.

In the case of `CCN(CC)CCCOc1cc2c(cc1OC)c(=O)n(CCN(C)C)c1c3cc4c(cc3ccc21)OCO4`, in assay [2], the IC50 amounted to 10 µM. Besides, the outcome in the assay with HCT-116 [3] was Active.

With `COc1cc2c(cc1OCCCn1ccnc1)c(=O)n(CCN(C)C)c1c3cc4c(cc3ccc21)OCO4`, in assay [1], the inhibition entry was “inactive”.

For `CCN(CC)C(=O)COc1cc2c(cc1OC)c(=O)n(CCN(C)C)c1c3cc4c(cc3ccc21)OCO4`, the inhibition entry in assay [1] was “inactive”.

Regarding `COc1cc2c(=O)n(CCN(C)C)c3c4cc5c(cc4ccc3c2cc1OCCCN1CCCC1)OCO5`, the IC50 in assay [2] came to 3.6 µM. Besides, the result with HCT-116 [3] was Active.

As for `COc1cc2c(=O)n(CCN(C)C)c3c4cc5c(cc4ccc3c2cc1OCCCn1ccnc1)OCO5`, in assay [1], the inhibition entry was “inactive”.

For `COc1cc2c(cc1OCCCN1CCCC1)c(=O)n(CCN(C)C)c1c3cc4c(cc3ccc21)OCO4`, the IC50 in assay [2] came out at 5.4 µM. Besides, the result in the assay on HCT-116 [3] was Active.

For the compound `COc1cc2c(cc1OCCN(C)C)c(=O)n(CCN(C)C)c1c3cc4c(cc3ccc21)OCO4`, the IC50 in assay [2] stood at 59 µM.

On to `COc1cc2c(=O)n(CCN(C)C)c3c4cc5c(cc4ccc3c2cc1OCCN1CCSCC1)OCO5`, for which the inhibition entry in assay [1] was “inactive”.

With `CCCCN(CCCC)CCOc1cc2c(cc1OC)c(=O)n(CCN(C)C)c1c3cc4c(cc3ccc21)OCO4`, the IC50 in assay [2] stood at 23 µM.

For the compound `COc1cc2c(=O)n(CCN(C)C)c3c4cc5c(cc4ccc3c2cc1OCCc1ccccc1)OCO5`, in assay [1], the inhibition result was “inactive”.

Regarding `CCN(CC)CCCOc1cc2c(=O)n(CCN(C)C)c3c4cc5c(cc4ccc3c2cc1OC)OCO5`, the IC50 in assay [2] is 6.4 µM.

For the compound `CCN(CC)CCOc1cc2c(=O)n(CCN(C)C)c3c4cc5c(cc4ccc3c2cc1OC)OCO5`, in assay [2], the IC50 stood at 20 µM.

For the compound `COc1cc2c(=O)n(CCN(C)C)c3c4cc5c(cc4ccc3c2cc1OCCCc1ccccc1)OCO5`, the inhibition result in assay [1] is “inactive”.

For `COc1cc2c(=O)n(CCN(C)C)c3c4cc5c(cc4ccc3c2cc1OCCN(C)C)OCO5`, the IC50 in assay [2] worked out at 12 µM.

For the compound `COc1cc2c(=O)n(CCN(C)C)c3c4cc5c(cc4ccc3c2cc1OCC(=O)N1CCOCC1)OCO5`, the inhibition entry in assay [1] is “inactive”.

As to `COc1cc2c(=O)n(CCN(C)C)c3c4cc5c(cc4ccc3c2cc1OCCCN1CCSCC1)OCO5`, the IC50 in assay [2] is 5.7 µM. Further, the Activity in the assay with HCT-116 [4] is reported as 19%; in the assay on HCT-116 [5], 93%; in the assay with HCT-116 [6], 73%. Moreover, in the assay with HCT-116 [3], the outcome was Active. Further, in the assay with HCT-116 [7], the CI was less than 0.3.

Turning to `COc1cc2c(=O)n(CCN(C)C)c3c4cc5c(cc4ccc3c2cc1OCC(=O)N(C)C)OCO5`, in assay [1], the inhibition result was “inactive”.
